One assay relates to hyperglycemic male KK mice. Briefly: Action in depressing blood glucose (Method 1). Type of assay: in vivo. To be noted: Mus musculus, po, 72 h, compound admixed with powder feed at 0.01% (ca. 10 mg/kg/day) for three days, plasma glucose vs control group, read-out: Rate of hypoglycemic activity (%) (blood glucose depression rate). On the procedure: Action in Depressing Blood Glucose (Method 1)
Each compound, admixed with powder feed F-2 (Funabashi Farm) was administered to hyperglycemic male KK mice each having a body weight of 40 g or more at a rate of 0.01% (ca. 10 mg/kg/day) for three days. Meanwhile, mice of a control group were fed with the powder feed only. Then, a blood sample was collected from the caudal vein of each mouse under no anesthesia and centrifuged. The blood glucose in the plasma thus obtained was determined using Glucoloader F (Product of A & T Co., Ltd.).
The blood glucose depression rate were estimated from the following equation:
Blood glucose depression rate (%)=[(Blood glucose in Control group−Blood glucose in administered group)/Blood glucose in Control group]×100
Take `CCCCC(Cc1ccc(OCCNC(=O)c2ccc(-c3ccccn3)cc2)cc1)C(=O)O` (centres unmarked) [Example 12, 2-butyl-3-[4-[2-(4-pyridine-2-ylbenzoylamino)ethoxy]phenyl]propionic acid]: the inhibition in vivo at 10 mg/kg/day was 42%.

As for `CCCCC(Cc1ccc(OCCNC(=O)c2ccc(-c3ccc(C=O)cc3)cc2)cc1)C(=O)O` (centres unmarked) [Example 27, 2-Butyl-3-[4-[2-(4′-formylbiphenyl-4-carbonylamino)ethoxy]phenyl]propionic acid], the inhibition in vivo at 10 mg/kg/day is 35%.

As to `CC(C)c1ccc(OC(Cc2ccc(OCCNC(=O)c3ccc(-c4ccc([N+](=O)[O-])cn4)cc3)cc2)C(=O)O)cc1` (centres unmarked) [Example 109, 2-(4-Isopropylphenoxy)-3-[4-[2-[4-(3-nitropyridine-6-yl)benzoylamino]ethoxy]phenyl]propionic acid], the inhibition in vivo at 10 mg/kg/day came out at 38%.

In the case of `O=C(NCCOc1ccc(CC(Oc2ccccc2)C(=O)O)cc1)c1ccc(-c2ccc(F)cc2)cc1` (centres unmarked) [Example 78, 3-[4-[2-(4′-Fluorobiphenyl-4-carbonylamino)ethoxy]phenyl]-2-phenoxypropionic acid], the inhibition in vivo at 10 mg/kg/day is 53%. Same read-out and setting: the same measure for `O=C(NCCOc1ccc(CC(Oc2cc(F)cc(F)c2)C(=O)O)cc1)c1ccc(-c2ccccn2)cc1` (centres unmarked) [Example 139, 2-(3,5-Difluorophenoxy)-3-[4-[2-(4-pyridine-2-ylbenzoylamino)ethoxy]phenyl]propionic acid]: 23%; for `CCCCC(Cc1ccc(OCCNC(=O)c2ccc(-c3ccc(CN(C)C)cc3)cc2)cc1)C(=O)O` (centres unmarked) [Example 29, 2-Butyl-3-[4-[2-(4′-dimethylaminomethylbiphenyl-4-carbonyl-amino)ethoxy]phenyl]propionic acid]: 20%.

`CC(Cc1ccc(OCCNC(=O)c2ccc(-c3ccccn3)cc2)cc1)(Oc1ccccc1)C(=O)O` (centres unmarked) [Example 16, 2-Methyl-2-phenoxy-3-[4-[2-(4-pyridine-2-ylbenzoylamino)ethoxy]phenyl]propionic acid]: the inhibition in vivo at 10 mg/kg/day stood at 64%.

Regarding `CC(C)(C)c1ccc(OC(Cc2ccc(OCCNC(=O)c3ccc(-c4ccccn4)cc3)cc2)C(=O)O)cc1` (centres unmarked) [Example 117, 2-(4-t-Butylphenoxy)-3-[4-[2-(4-pyridine-2-ylbenzoylamino)ethoxy]phenyl]propionic acid], the inhibition in vivo at 10 mg/kg/day was 70%. For the compound `O=C(NCCOc1ccc(CC(Oc2ccc(C(F)(F)F)cc2)C(=O)O)cc1)c1ccc(-c2ccccn2)cc1` (centres unmarked) [Example 123, 3-[4-[2-(4-Pyridine-2-ylbenzoylamino)ethoxy]phenyl]-2-(4-trifluoromethylphenoxy)propionic acid], the inhibition in vivo at 10 mg/kg/day stood at 43%. Regarding `COc1ccc(-c2ccc(C(=O)NCCOc3ccc(CC(Oc4ccc(C(C)C)cc4)C(=O)O)cc3)cn2)cc1` (centres unmarked) [Example 99, 2-(4-Isopropylphenoxy)-3-[4-[2-[2-(4-methoxyphenyl)pyridine-5-carbonylamino]ethoxy]phenyl]propionic acid], the inhibition in vivo at 10 mg/kg/day was 57%. For `CCCCC(Cc1ccc(OCCNC(=O)c2ccc(-c3cccc(O)c3)cc2)cc1)C(=O)O` (centres unmarked) [Example 34, 2-Butyl-3-[4-[2-(3′-hydroxybiphenyl-4-carbonylamino)ethoxy]phenyl]propionic acid], the inhibition in vivo at 10 mg/kg/day turned out to be 22%.

On to `CCCCC(Cc1ccc(OCCNC(=O)c2ccc(-c3cc(C)c(O)c(C)c3)cc2)cc1)C(=O)O` (centres unmarked) [Example 48, Sodium 2-butyl-3-[4-[2-(4′-hydroxy-3′, 5′-dimethylbiphenyl-4-carbonylamino)ethoxy]phenyl]propionate], for which the inhibition in vivo at 10 mg/kg/day is 37%. Turning to `CC(C)c1ccc(OC(Cc2ccc(OCCNC(=O)c3ccc(-c4ccccn4)cc3)cc2)C(=O)O)cc1` (centres unmarked) [Example 10, 2-(4-isopropylphenoxy)-3-[4-[2-(4-pyridine-2-ylbenzoylamino)ethoxy]phenyl]propionic acid], the inhibition in vivo at 10 mg/kg/day was found to be 64%. Turning to `CCCCC(Cc1ccc(OCCCNC(=O)c2ccc(-c3ccccn3)cc2)cc1)C(=O)O` (centres unmarked) [Example 70, 2-Butyl-3-[4-[3-(4-pyridine-2-ylbenzoylamino)propoxy]phenyl]propionic acid], the inhibition in vivo at 10 mg/kg/day came to 23%. `CC(C)c1ccc(OC(Cc2ccc(OCCNC(=O)c3ccc(OCC(F)(F)C(F)F)nc3)cc2)C(=O)O)cc1` (centres unmarked) [Example 103, Sodium 3-[4-[2-[2-(2,2,3,3-tetrafluoropropoxy)pyridine-5-carbonylamino]ethoxy]phenyl]-2-(4-isopropylphenoxy)propionate]: the inhibition in vivo at 10 mg/kg/day came out at 48%. Regarding `CCCCC(Cc1ccc(OCCNC(=O)c2ccc(-c3ccc(C(=O)O)cc3)cc2)cc1)C(=O)O` (centres unmarked) [Example 30, 2-Butyl-3-[4-[2-(4′-carboxybiphenyl-4-carbonylamino)ethoxy]phenyl]propionic acid], the inhibition in vivo at 10 mg/kg/day turned out to be 18%. Turning to `CCCCC(Cc1ccc(OCCNC(=O)c2ccc(-c3cccc(OC)c3)cc2)cc1)C(=O)O` (centres unmarked) [Example 32, 2-Butyl-3-[4-[2-(3′-methoxybiphenyl-4-carbonylamino)ethoxy]phenyl]propionic acid], the inhibition in vivo at 10 mg/kg/day was found to be 21%. Same read-out and setting: the same measure for `CC(C)c1ccc(OC(Cc2ccc(OCCNC(=O)c3ccc(-c4ccc(N(C)C)cn4)cc3)cc2)C(=O)O)cc1` (centres unmarked) [Example 113, 3-[4-[2-[4-(3-Dimethylaminopyridine-6-yl)benzoylamino]ethoxy]-phenyl]-2-(4-isopropylphenoxy)propionic acid]: 64%.

The same assay, now with this note: compound admixed with powder feed at 0.01% (ca. 10 mg/kg/day) for three days, plasma glucose vs control group.
Turning to `CCCCC(Cc1ccc(OCCNC(=O)c2ccc(N(CC)CC)cc2)cc1)C(=O)O` (centres unmarked) [Example 62, 2-Butyl-3-[4-[2-(4-N,N-dietylaminobenzoylamino)ethoxy]phenyl]propionic acid], the “Rate of hypoglycemic activity (%) (blood glucose depression rate)” value is 16%. As for `O=C(NCCOc1ccc(CC(Oc2ccccc2)C(=O)O)cc1)c1ccc(-c2ccccn2)cc1` (centres unmarked) [Example 8, 2-Phenoxy-3-[4-[2-(4-pyridine-2-ylbenzoylamino)ethoxy]phenyl]propioric acid], the “Rate of hypoglycemic activity (%) (blood glucose depression rate)” value was found to be 22%.

The values above are taken from US6528525B1, “Amidocarboxylic acid derivatives” (Sankyo Company, Limited, priority 1998, dated 2003).
